Measured values taken from publication PMC4209917 (Molecular cancer therapeutics, 2014).

Experiments:
[1] = biological target: T1, Choline kinase alpha (ChoK) (Homo sapiens, UniProt P35790); assay: […]-choline phosphorylation in MDA-MB-231 cells; assay type: cell-based
[2] = biological target: T1, Choline kinase alpha (ChoK); assay: […]-choline phosphorylation in intact MDA-MB-231 cells, […] h; assay type: cell-based

T1 sequence (P35790 whole entry): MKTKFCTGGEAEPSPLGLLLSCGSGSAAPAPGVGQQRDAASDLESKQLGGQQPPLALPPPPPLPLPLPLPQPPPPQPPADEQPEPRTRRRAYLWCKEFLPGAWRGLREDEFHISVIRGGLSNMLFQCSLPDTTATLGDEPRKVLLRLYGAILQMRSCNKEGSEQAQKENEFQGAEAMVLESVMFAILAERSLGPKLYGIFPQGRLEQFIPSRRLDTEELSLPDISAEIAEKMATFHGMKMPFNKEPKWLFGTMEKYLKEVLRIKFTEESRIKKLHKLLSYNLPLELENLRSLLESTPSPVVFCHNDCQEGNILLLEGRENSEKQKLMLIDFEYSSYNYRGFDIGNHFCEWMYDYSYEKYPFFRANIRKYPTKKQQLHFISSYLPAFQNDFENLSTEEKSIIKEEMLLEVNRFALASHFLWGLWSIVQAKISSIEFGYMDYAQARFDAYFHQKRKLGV

IC50 [1] [µM] | IC50 [2] [µM] | Compound
4.6 | – | CC1(C)C(/C=C/C=C/C=C/C=C2\N(CCO)c3ccccc3C2(C)C)=[N+](CCO)c2ccccc21 [JAS239, 1-(2-hydroxyethyl)-2-((1E,3E,5E)-7-((Z/E)-1-(2-hydroxyethyl)-3,3-dimethylindolin-2-ylidene)hepta-1,3,5-trien-1-yl)-3,3-dimethyl-3H-indol-1-ium chloride]
– | 2.3 | CN(C)c1cc[n+](Cc2ccc(CCCCc3ccc(C[n+]4ccc(N(C)C)cc4)cc3)cc2)cc1 [MN58b, 1,1′-((butane-1,4-diylbis(4,1-phenylene))bis(methylene))bis(4-(dimethylamino)pyridin-1-ium) bromide]
